Assay results from patent US12139492B2 (Endotarget Inc., priority 2021, dated 2024).
Read-outs that look alike come from different tables or passages of the source.

Columns and labels:
Mino cells = assay: Antiproliferative effect, MTS cell viability assay, Mino cells; assay type: cell-based; conditions: Homo sapiens, MINO, Mino mantle cell lymphoma cells; read-out: IC50 (anti-proliferation) Mino cells
Method: (§1) Antiproliferative effect of the exemplary compounds was assessed in B-cell malignancy models.
(§2) To assess the effect of the exemplary compounds on cell viability in B-cell malignancy models by degradation of BTK protein, Mino and JeKo-1 cells were treated with varying concentrations of Ibrutinib (0, 0.001, 0.01, 0.1, 1, 10 μM). Under these conditions, cell viability was determined by an MTS assay. Cytotoxicity was assayed by the determination of reduced tetrazolium (formazan) created by metabolically active cells as detected at 490 nm absorbance using a microplate reader (BMG Labtech, Cary, NC, USA).
(§3) The exemplary compounds attenuated the viability of Mino and JeKo-1 cells in a concentration-dependent manner at 72 h post treatment. Results are shown in Table 1 for each exemplary compound.

JeKo-1 cells = assay: Antiproliferative effect, MTS cell viability assay, JeKo-1 cells; assay type: cell-based; conditions: Homo sapiens; JeKo-1 mantle cell lymphoma cells; read-out: IC50 (anti-proliferation) JeKO-1 cells
Method: as §1, §2, §3

BTK = BTK (Homo sapiens, UniProt Q06187); assay: Degradation of BTK protein in Namalwa cells (Western blot; DC50, Dmax); conditions: for DC50: cell line not given
BTK, sequence (Q06187 whole entry): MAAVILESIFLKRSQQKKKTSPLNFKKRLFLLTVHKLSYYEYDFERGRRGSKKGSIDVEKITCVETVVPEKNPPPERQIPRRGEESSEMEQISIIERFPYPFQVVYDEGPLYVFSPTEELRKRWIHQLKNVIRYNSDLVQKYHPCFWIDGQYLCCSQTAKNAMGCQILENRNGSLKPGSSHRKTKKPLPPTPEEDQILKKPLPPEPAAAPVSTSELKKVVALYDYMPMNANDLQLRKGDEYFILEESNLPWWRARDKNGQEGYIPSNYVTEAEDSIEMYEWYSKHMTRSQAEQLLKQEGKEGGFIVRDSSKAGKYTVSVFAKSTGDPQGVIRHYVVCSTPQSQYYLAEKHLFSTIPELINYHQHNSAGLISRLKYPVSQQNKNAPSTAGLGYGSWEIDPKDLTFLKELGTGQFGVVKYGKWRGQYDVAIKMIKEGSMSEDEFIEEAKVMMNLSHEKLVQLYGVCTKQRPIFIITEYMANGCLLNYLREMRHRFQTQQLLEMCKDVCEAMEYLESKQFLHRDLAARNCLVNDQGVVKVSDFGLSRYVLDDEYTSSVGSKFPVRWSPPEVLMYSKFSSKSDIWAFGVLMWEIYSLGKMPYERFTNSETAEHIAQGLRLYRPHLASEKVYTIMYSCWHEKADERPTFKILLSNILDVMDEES

[1] = read-out: DC50 (BTK degradation), concentration giving 50% reduction of BTK expression level
[2] = read-out: Dmax (BTK degradation)

Row | DC50 (BTK; [1]) [nM] | Dmax (BTK; [2]) [%] | Dmax (BTK) [%] | DC50 (BTK; BTK degradation) [nM] | degradation of BTK protein (BTK; Namalwa B lymphocyte cells, various concentrations, 24 hours, Western blot) | SMILES | IC50 (Mino cells) [nM] | IC50 (JeKo-1 cells) [nM]
1 | 10 to 50 | > 50 |  |  |  | Nc1ncnc2c1c(-c1ccc(Oc3ccccc3)cc1)nn2C1CCN(CCN2CC(CN3CCN(c4ccc5c(c4)CN(C4CCC(=O)NC4=O)C5=O)CC3)C2)CC1 (centres unmarked) [Compound 462, 3-(5-(4-((1-(2-(4-(4-amino-3-(4-phenoxyphenyl)-1H-pyrazolo[3,4-d]pyrimidin-1-yl)piperidin-1-yl)ethyl)azetidin-3-yl)methyl)piperazin-1-yl)-1-oxoisoindolin-2-yl)piperidine-2,6-dione] | 1000 to 10000 | 1000 to 10000
2 | < 10 | > 90 |  |  |  | Nc1ncnc2c1c(-c1ccc(Oc3ccccc3)cc1)nn2C1CCN(C(=O)C2CC(N3CCN(c4ccc5c(c4)CN(C4CCC(=O)NC4=O)C5=O)CC3)C2)CC1 (centres unmarked) [Compound 508, 3-(5-(4-(3-(4-(4-amino-3-(4-phenoxyphenyl)-1H-pyrazolo[3,4-d]pyrimidin-1-yl)piperidine-1-carbonyl)cyclobutyl)piperazin-1-yl)-1-oxoisoindolin-2-yl)piperidine-2,6-dione] | < 1000 | < 1000
3 | < 10 | > 90 |  |  |  | Nc1ncnc2c1c(-c1ccc(Oc3ccccc3)cc1)nn2C1CCN(CCN2CCC(CSc3ccc4c(c3)CN(C3CCC(=O)NC3=O)C4=O)CC2)CC1 (centres unmarked) [Compound 470, 3-(5-(((1-(2-(4-(4-amino-3-(4-phenoxyphenyl)-1H-pyrazolo[3,4-d]pyrimidin-1-yl)piperidin-1-yl)ethyl)piperidin-4-yl)methyl)thio)-1-oxoisoindolin-2-yl)piperidine-2,6-dione] | < 1000 | 1000 to 10000
4 | 10 to 50 | > 75 |  |  |  | Nc1ncnc2c1c(-c1ccc(Oc3ccccc3)cc1)cn2C1CCN(CCN2CC(N3CCN(c4ccc5c(c4)CN(C4CCC(=O)NC4=O)C5=O)CC3)C2)CC1 (centres unmarked) [Compound 464, 3-(5-(4-(1-(2-(4-(4-amino-5-(4-phenoxyphenyl)-7H-pyrrolo[2,3-d]pyrimidin-7-yl)piperidin-1-yl)ethyl)azetidin-3-yl)piperazin-1-yl)-1-oxoisoindolin-2-yl)piperidine-2,6-dione] | 1000 to 10000 | 1000 to 10000
5 | > 50 | > 50 |  |  |  | Nc1ncnc2c1c(-c1ccc(Oc3ccccc3)cc1)nn2C1CCN(CCN2CCN(CCSc3ccc4c(c3)CN(C3CCC(=O)NC3=O)C4=O)CC2)CC1 (centres unmarked) [Compound 466, 3-(5-((2-(4-(2-(4-(4-amino-3-(4-phenoxyphenyl)-1H-pyrazolo[3,4-d]pyrimidin-1-yl)piperidin-1-yl)ethyl)piperazin-1-yl)ethyl)thio)-1-oxoisoindolin-2-yl)piperidine-2,6-dione] | > 10000 | > 10000

Continued, compound first:

Row | SMILES | DC50 (BTK; [1]) [nM] | Dmax (BTK; [2]) [%] | Dmax (BTK) [%] | DC50 (BTK; BTK degradation) [nM] | degradation of BTK protein (BTK; Namalwa B lymphocyte cells, various concentrations, 24 hours, Western blot) | IC50 (Mino cells) [nM] | IC50 (JeKo-1 cells) [nM]
6 | Nc1ncnc2c1c(-c1ccc(Oc3ccccc3)cc1)nn2C1CCN(C2CCN(C(=O)N3CCC(N4CCN(c5ccc6c(c5)CN(C5CCC(=O)NC5=O)C6=O)CC4)CC3)CC2)CC1 (centres unmarked) [Compound 232, 3-(5-(4-(1-(4-(4-amino-3-(4-phenoxyphenyl)-1H-pyrazolo[3,4-d]pyrimidin-1-yl)-[1,4′-bipiperidine]-1′-carbonyl)piperidin-4-yl)piperazin-1-yl)-1-oxoisoindolin-2-yl)piperidine-2,6-dione] |  |  | > 90 | < 10 |  | 1000 to 10000 | 1000 to 10000
7 | Nc1ncnc2c1c(-c1ccc(Oc3ccccc3)cc1)nn2C1CCN(C2CCN(C(=O)N3CCN(CCCN4CCN(c5ccc6c(c5)C(=O)N(C5CCC(=O)NC5=O)C6=O)CC4)CC3)CC2)CC1 (centres unmarked) [Compound 257, 5-(4-(3-(4-(4-(4-amino-3-(4-phenoxyphenyl)-1H-pyrazolo[3,4-d]pyrimidin-1-yl)-[1,4′-bipiperidine]-1′-carbonyl)piperazin-1-yl)propyl)piperazin-1-yl)-2-(2,6-dioxopiperidin-3-yl)isoindoline-1,3-dione] |  |  | > 75 | > 50 |  | > 10000 | > 10000
8 | NC(=O)c1c(-c2ccc(Oc3ccccc3)cc2)nn2c1NCCC2C1CCN(C(=O)N2CCN(CCN3CCN(c4ccc5c(c4)CN(C4CCC(=O)NC4=O)C5=O)CC3)CC2)CC1 (centres unmarked) [Compound 282, 7-(1-(4-(2-(4-(2-(2,6-dioxopiperidin-3-yl)-1-oxoisoindolin-5-yl)piperazin-1-yl)ethyl)piperazine-1-carbonyl)piperidin-4-yl)-2-(4-phenoxyphenyl)-4,5,6,7-tetrahydropyrazolo[1,5-a]pyrimidine-3-carboxamide] |  |  | > 90 | 10 to 50 |  | 1000 to 10000 | > 10000
9 | NC(=O)c1c(-c2ccc(Oc3ccccc3)cc2)nn2c1NCCC2C1CCN(CC2CCN(C(=O)N3CCC(CC4CCN(c5ccc6c(c5)CN(C5CCC(=O)NC5=O)C6=O)CC4)CC3)CC2)CC1 (centres unmarked) [Compound 374, 7-(1-((1-(4-((1-(2-(2,6-dioxopiperidin-3-yl)-1-oxoisoindolin-5-yl)piperidin-4-yl)methyl)piperidine-1-carbonyl)piperidin-4-yl)methyl)piperidin-4-yl)-2-(4-phenoxyphenyl)-4,5,6,7-tetrahydropyrazolo[1,5-a]pyrimidine-3-carboxamide] |  |  | > 75 | 10 to 50 |  | 1000 to 10000 | > 10000
10 | Nc1ncnc2c1c(-c1ccc(Oc3ccccc3)cc1)nn2C1CCN(C2CCN(C(=O)N3CCN(CCN4CCN(c5ccc6c(c5)CN(C5CCC(=O)NC5=O)C6=O)CC4)CC3)CC2)CC1 (centres unmarked) [Compound 246, 3-(5-(4-(2-(4-(4-(4-amino-3-(4-phenoxyphenyl)-1H-pyrazolo[3,4-d]pyrimidin-1-yl)-[1,4′-bipiperidine]-1′-carbonyl)piperazin-1-yl)ethyl)piperazin-1-yl)-1-oxoisoindolin-2-yl)piperidine-2,6-dione] |  |  | > 75 | 10 to 50 |  | 1000 to 10000 | 1000 to 10000
11 | Nc1ncnc2c1c(-c1ccc(Oc3ccccc3)cc1)nn2C1CCN(C2CCN(CC3CCN(CC4CN(c5ccc6c(c5)C(=O)N(C5CCC(=O)NC5=O)C6=O)C4)CC3)CC2)CC1 (centres unmarked) [Compound 435, 5-(3-((4-((4-(4-amino-3-(4-phenoxyphenyl)-1H-pyrazolo[3,4-d]pyrimidin-1-yl)-[1,4′-bipiperidin]-1′-yl)methyl)piperidin-1-yl)methyl)azetidin-1-yl)-2-(2,6-dioxopiperidin-3-yl)isoindoline-1,3-dione] | < 10 | > 90 |  |  | dose-dependent degradation | < 1000 | 1000 to 10000
12 | Nc1ncnc2c1c(-c1ccc(Oc3ccccc3)cc1)nn2C1CCN(CC2CCN(CC3CCN(c4ccc(N5CCC(=O)NC5=O)cc4)CC3)C2)CC1 (centres unmarked) [Compound 547, 1-(4-(4-((3-((4-(4-amino-3-(4-phenoxyphenyl)-1H-pyrazolo[3,4-d]pyrimidin-1-yl)piperidin-1-yl)methyl)pyrrolidin-1-yl)methyl)piperidin-1-yl)phenyl)dihydropyrimidine-2,4(1H,3H)-dione] | < 10 | > 90 |  |  |  | 1000 to 10000 | 1000 to 10000
13 | NC(=O)c1c(-c2ccc(Oc3ccccc3)cc2)nn2c1NCCC2C1CCN(C(=O)N2CCC(CC3CCN(c4ccc5c(c4)CN(C4CCC(=O)NC4=O)C5=O)CC3)CC2)CC1 (centres unmarked) [Compound 278, 7-(1-(4-((1-(2-(2,6-dioxopiperidin-3-yl)-1-oxoisoindolin-5-yl)piperidin-4-yl)methyl)piperidine-1-carbonyl)piperidin-4-yl)-2-(4-phenoxyphenyl)-4,5,6,7-tetrahydropyrazolo[1,5-a]pyrimidine-3-carboxamide] |  |  | > 90 | < 10 |  | < 1000 | 1000 to 10000
14 | NC1=NC=NC2C1C(c1ccc(Oc3ccccc3)cc1)=NN2C1CCN(C2CN(C(=O)N3CC(C4CN(c5ccc6c(c5)CN(C5CCC(=O)NC5=O)C6=O)C4)C3)C2)CC1 (centres unmarked) [Compound 500, 3-(5-(1′-(3-(4-(4-amino-3-(4-phenoxyphenyl)-3a,7a-dihydro-1H-pyrazolo[3,4-d]pyrimidin-1-yl)piperidin-1-yl)azetidine-1-carbonyl)-[3,3′-biazetidin]-1-yl)-1-oxoisoindolin-2-yl)piperidine-2,6-dione] | 10 to 50 | > 90 |  |  |  | < 1000 | 1000 to 10000
15 | NC(=O)c1c(-c2ccc(Oc3ccccc3)cc2)nn2c1NCCC2C1CCN(CC2CCN(C(=O)N3CCC(CN4CCC(c5ccc6c(c5)C(=O)N(C5CCC(=O)NC5=O)C6=O)CC4)CC3)CC2)CC1 (centres unmarked) [Compound 375, 7-(1-((1-(4-((4-(2-(2,6-dioxopiperidin-3-yl)-1,3-dioxoisoindolin-5-yl)piperidin-1-yl)methyl)piperidine-1-carbonyl)piperidin-4-yl)methyl)piperidin-4-yl)-2-(4-phenoxyphenyl)-4,5,6,7-tetrahydropyrazolo[1,5-a]pyrimidine-3-carboxamide] |  |  | > 75 | 10 to 50 |  | 1000 to 10000 | 1000 to 10000
16 | Nc1ncnc2c1c(-c1ccc(Oc3ccccc3)cc1)nn2C1CCN(C2CCN(C(=O)N3CCC(CCCC4CCN(c5ccc6c(c5)C(=O)N(C5CCC(=O)NC5=O)C6=O)CC4)CC3)CC2)CC1 (centres unmarked) [Compound 265, 5-(4-(3-(1-(4-(4-amino-3-(4-phenoxyphenyl)-1H-pyrazolo[3,4-d]pyrimidin-1-yl)-[1,4′-bipiperidine]-1′-carbonyl)piperidin-4-yl)propyl)piperidin-1-yl)-2-(2,6-dioxopiperidin-3-yl)isoindoline-1,3-dione] |  |  | > 75 | 10 to 50 |  | 1000 to 10000 | 1000 to 10000
